Test results: patent US5972982A (priority 1997, dated 1999)
≈ marks a conversion by molar mass, not a printed value.

Tests used:
[1] = tested on: Mycobacterium tuberculosis strain H37Rv; test: microbe, parasite or virus in culture; type: cell-based; conditions: read-out: MIC VERSUS H37Rv
[2] = tested on: Poliovirus Type III vaccine strain (ATCC VR 300); type: cell-based
[3] = tested on: Poliovirus Type III vaccine strain (ATCC VR 300); test: microbe, parasite or virus in culture; type: cell-based
[4] = tested on: Buffalo Green Monkey Kidney Cells (ATCC CCL 81)
Streptococcus pyogenes = test: microbe, parasite or virus in culture; conditions: 48 h
[5] = tested on: HEP 2 Cells (ATCC HB 8065); test: Antiviral assay of Respiratory Syncytial Virus: toxicity to uninfected cells; type: cell-based
Experimental: c. […] The cell count wells receive media only.
d. The cultures are incubated for 24 hr.
e. […] Scoring is as described above.

[6] = tested on: several DNA and RNA viruses; conditions: against several DNA and RNA viruses; cited from earlier work

Row | Structure (SMILES) | MIC [1] [µg/mL] | VIRUS YIELD (PFU/mL) [3] | VIRUS YIELD FOLD-REDUCTION [3] | TOXICITY [4] | toxicity (in words) [4] | MIC (Streptococcus pyogenes) [µg/mL] | broad spectrum antiviral activity [6] | other results
1 | CCCCCCCCCCCCCCCCOCC(CO)n1ccnc1 (stereo not shown) [CPR 1104, 1-O-hexadecyl-2-(1-imidazolyl)-2-deoxy-glycerol] | 1.6 (≈ 4.36 µM) |  |  |  |  |  |  | 
2 | CCCCCCCCCCCCCCCCCCOCC(CO)n1cncn1 (stereo not shown) [CPR 1004, 1-O-octadecyl-2-(1-triazolyl)-2-deoxy-glycerol] | 12.5 (≈ 31.6 µM) | 7.0 × 10^5 PFU/mL | 41.7 fold | N | not toxic at the concentrations tested | 1 (≈ 2.53 µM) |  | VIRAL CPE [2]: ±; activity at 100000 µM ([3]; Enterovirus C, read-out: VIRUS YIELD (YIELD)): 2.4%
3 | CCCCCCCCCCCCCCCCCCOCC(CO)n1ccnc1 (stereo not shown) [CPR 1005, 1-O-octadecyl-2-(1-imidazolyl)-2-deoxy-glycerol] | 6.25 (≈ 15.8 µM) | 2.8 × 10^3 PFU/mL | 1.03×10^4 fold | N | not toxic at the concentrations tested | 10 (≈ 25.3 µM) |  | TOXICITY ([5]; Table 4, HEP 2 cells, 24 hr, final concentration 100 (mM)): N; toxicity (in words) ([5]; at the dosages tested): not toxic at the dosages tested
4 | Nc1ncnc2c1ncn2C[C@@H](CO)OCP(=O)(O)O [(S)-9-(3'-dihydroxy-2'-phosphonylmethoxypropyl)adenine] |  |  |  |  |  |  | broad spectrum antiviral activity | 
5 | Nc1ncnc2c1ncn2C[C@H](O)CO [(S)-9-(2',3'-dihydroxypropyl)adenine] |  |  |  |  |  |  | broad spectrum antiviral activity | 
